This is an account of results in PubChem BioAssay AID330 (DTP/NCI, 2004).

The experiment relates to P388 leukemia ip, CD2F1 mice, survival T/C. In words: NCI In Vivo Anticancer Drug Screen. Data for tumor model P388 Leukemia (intraperitoneal) in CD2F1 (CDF1) mice. The following applies: endpoint: median survival time, higher = longer survival. The procedure, abridged:
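Mice carrying the transplanted tumor received test compound or vehicle. Survival was recorded in each group, and the value is the treated-group measurement divided by that of the vehicle-treated control group.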

[1] abbreviates: dose: 60.0 mg/kg/injection, schedule: Q01DX005 (ip), vehicle: saline with Tween-80.
Where [2] appears, read: dose: 120.0 mg/kg/injection, schedule: Q01DX005 (ip), vehicle: saline with Tween-80.
The mark [3] stands for this setting: dose: 240.0 mg/kg/injection, schedule: Q01DX005 (ip), vehicle: saline with Tween-80.
Where [4] appears, read: dose: 50.0 mg/kg/injection, schedule: Q01DX009 (ip), vehicle: saline with Tween-80.
[5] abbreviates: dose: 50.0 mg/kg/injection, schedule: Q01DX005 (ip), vehicle: Klucel (hydroxypropylcellulose) (HPC).
The mark [6] stands for this setting: dose: 100.0 mg/kg/injection, schedule: Q01DX005 (ip), vehicle: Klucel (hydroxypropylcellulose) (HPC).
Where [7] appears, read: dose: 200.0 mg/kg/injection, schedule: Q01DX005 (ip), vehicle: Klucel (hydroxypropylcellulose) (HPC).
Setting [8] is: dose: 50.0 mg/kg/injection, schedule: Q01DX005 (ip), vehicle: saline with Tween-80.
The mark [9] stands for this setting: dose: 100.0 mg/kg/injection, schedule: Q01DX005 (ip), vehicle: saline with Tween-80.
Setting [10] is: dose: 200.0 mg/kg/injection, schedule: Q01DX005 (ip), vehicle: saline with Tween-80.
Setting [11] is: dose: 100.0 mg/kg/injection, schedule: Q01DX009 (ip), vehicle: saline with Tween-80.
Setting [12] is: dose: 200.0 mg/kg/injection, schedule: Q01DX009 (ip), vehicle: saline with Tween-80.
[13] abbreviates: dose: 400.0 mg/kg/injection, schedule: Q01DX009 (ip), vehicle: saline with Tween-80.
Setting [14] is: dose: 100.0 mg/kg/injection, schedule: Q01DX001 (ip), vehicle: saline with Tween-80.
Where [15] appears, read: dose: 200.0 mg/kg/injection, schedule: Q01DX001 (ip), vehicle: saline with Tween-80.
Setting [16] is: dose: 400.0 mg/kg/injection, schedule: Q01DX001 (ip), vehicle: saline with Tween-80.

“And” between values parts separate entries of the source, which are not always exact repeats. Equal entries are not always repeated. Inconclusive results and toxic doses are left out.

For `CC[PH+](CC)CC[S-].CC[PH+](CC)CC[S-].[Au+].[Au+]`, the T/C by setting is: (dose: 2.5 mg/kg/injection, schedule: Q01DX009 (ip), vehicle: Klucel (hydroxypropylcellulose) (HPC)) 109 % of control; (dose: 5.0 mg/kg/injection, schedule: Q01DX009 (ip), vehicle: Klucel (hydroxypropylcellulose) (HPC)) 114 % of control and 115 % of control; (dose: 20.0 mg/kg/injection, schedule: Q01DX009 (ip), vehicle: Klucel (hydroxypropylcellulose) (HPC)) 153 % of control; (dose: 40.0 mg/kg/injection, schedule: Q01DX009 (ip), vehicle: Klucel (hydroxypropylcellulose) (HPC)) 87 % of control.

For `CC12CC3CC(C)(C1)CC(SCCN)(C3)C2`, the T/C by setting is: under setting [1], 105 % of control; under setting [2], 100 % of control.

As to `COCC1(C)CCCC2(C)C3=C(CC=C(OC)C3)CCC12` (stereo not given), the T/C is 102 % of control (dose: 100.0 mg/kg/injection, schedule: Q01DX001 (ip), vehicle: Klucel (hydroxypropylcellulose) (HPC)); 94 % of control (dose: 200.0 mg/kg/injection, schedule: Q01DX001 (ip), vehicle: Klucel (hydroxypropylcellulose) (HPC)); 90 % of control (dose: 400.0 mg/kg/injection, schedule: Q01DX001 (ip), vehicle: Klucel (hydroxypropylcellulose) (HPC)).

For the compound `N#Cc1c(N2CCOCC2)cc(-c2ccccc2)oc1=O`, the T/C by setting is: (dose: 25.0 mg/kg/injection, schedule: Q04DX002 (ip), vehicle: saline with Tween-80) 101 % of control; (dose: 50.0 mg/kg/injection, schedule: Q04DX002 (ip), vehicle: saline with Tween-80) 97 % of control; (dose: 100.0 mg/kg/injection, schedule: Q04DX002 (ip), vehicle: saline with Tween-80) 100 % of control.

Turning to `O=C1NC(c2ccccc2)(c2ccccc2)C(=O)N1CNc1ccccn1`, the T/C is 91 % of control under setting [1], 89 % of control under setting [2] and 88 % of control under setting [3].

With `Cc1cccc(Nc2ccccc2C(=O)O)c1C`, the T/C (dose: 6.25 mg/kg/injection, schedule: Q01DX009 (ip), vehicle: saline with Tween-80) was 103 % of control; the T/C (dose: 12.5 mg/kg/injection, schedule: Q01DX009 (ip), vehicle: saline with Tween-80) was 98 % of control; the T/C (dose: 25.0 mg/kg/injection, schedule: Q01DX009 (ip), vehicle: saline with Tween-80) is 111 % of control; the T/C under setting [4] was 101 % of control.

For `COc1ccc(C(c2cc3c(cc2O)OCO3)N2CCN(C(c3cc4c(cc3O)OCO4)c3ccc(OC)cc3OC)CC2)c(OC)c1` (stereo not given), the T/C was 88 % of control (dose: 60.0 mg/kg/injection, schedule: Q01DX005 (ip), vehicle: Klucel (hydroxypropylcellulose) (HPC)) and 86 % of control (dose: 120.0 mg/kg/injection, schedule: Q01DX005 (ip), vehicle: Klucel (hydroxypropylcellulose) (HPC)).

As to `S=c1[nH]nc(Cc2cccc3ccccc23)n1-c1ccccc1`, the T/C reads like this: under setting [5], 97 % of control; under setting [6], 99 % of control; under setting [7], 90 % of control.

`Cc1ncc(CCl)n1Cc1ccccc1`: the T/C (dose: 15.0 mg/kg/injection, schedule: Q01DX005 (ip), vehicle: saline) is 105 % of control; the T/C (dose: 30.0 mg/kg/injection, schedule: Q01DX005 (ip), vehicle: saline) is 106 % of control; the T/C (dose: 60.0 mg/kg/injection, schedule: Q01DX005 (ip), vehicle: saline) is 99 % of control.

`Cc1ccc2c(=O)ccn(Cc3ccccc3)c2n1`: the T/C reads like this: (dose: 100.0 mg/kg/injection, schedule: Q01DX001 (ip), vehicle: saline) 101 % of control; (dose: 200.0 mg/kg/injection, schedule: Q01DX001 (ip), vehicle: saline) 103 % of control; (dose: 400.0 mg/kg/injection, schedule: Q01DX001 (ip), vehicle: saline) 92 % of control.

`O=C(c1ccc(Cl)cc1)c1cc2ccccc2oc1=O`: the T/C under setting [1] was 92 % of control, the T/C under setting [2] was 93 % of control and the T/C under setting [3] is 93 % of control.

On to `CC(/C=N/N=C1\C(=O)Nc2ccccc21)=C\c1ccccc1`, for which the T/C is 95 % of control (dose: 50.0 mg/kg/injection, schedule: Q01DX009 (ip), vehicle: Klucel (hydroxypropylcellulose) (HPC)); 94 % of control (dose: 100.0 mg/kg/injection, schedule: Q01DX009 (ip), vehicle: Klucel (hydroxypropylcellulose) (HPC)); 100 % of control (dose: 200.0 mg/kg/injection, schedule: Q01DX009 (ip), vehicle: Klucel (hydroxypropylcellulose) (HPC)).

Regarding `Cc1[nH]c2ccc(N(C)C)cc2c(=O)c1CN(CCO)CCO`, the T/C reads like this: under setting [8], 108 % of control; under setting [9], 100 % of control; under setting [10], 100 % of control.

Turning to `BrC1CC(Br)c2c1c1c(c3c2C(Br)CC3Br)C(Br)CC1Br` (stereo not given), the T/C reads like this: under setting [11], 150 % of control; under setting [12], 156 % of control.

For `O=C1c2cc(O)c(O)cc2O[C@H](c2ccc(O)c(O)c2)[C@H]1O`, the T/C was 120 % of control under setting [11]; 100 % of control (dose: 100.0 mg/kg/injection, schedule: Q04DX003 (ip), vehicle: saline with Tween-80); 110 % of control under setting [12]; 100 % of control (dose: 200.0 mg/kg/injection, schedule: Q04DX003 (ip), vehicle: saline with Tween-80); 120 % of control under setting [13]; 109 % of control (dose: 400.0 mg/kg/injection, schedule: Q04DX003 (ip), vehicle: saline with Tween-80).

For `Nc1ccc(N=C2C=CC(=O)C=C2)c(N)c1`, the T/C was 102 % of control and 90 % of control (dose: 12.5 mg/kg/injection, schedule: Q01DX009 (ip), vehicle: saline); 103 % of control and 112 % of control (dose: 25.0 mg/kg/injection, schedule: Q01DX009 (ip), vehicle: saline); 105 % of control (dose: 50.0 mg/kg/injection, schedule: Q01DX009 (ip), vehicle: saline); 112 % of control (dose: 100.0 mg/kg/injection, schedule: Q01DX009 (ip), vehicle: saline).

For `N#Cc1ccc(NN=NCCO)cc1`, the T/C (dose: 12.5 mg/kg/injection, schedule: Q01DX009 (ip), vehicle: distilled water + Tween-80) is 100 % of control; the T/C (dose: 25.0 mg/kg/injection, schedule: Q01DX009 (ip), vehicle: distilled water + Tween-80) is 102 % of control; the T/C (dose: 50.0 mg/kg/injection, schedule: Q01DX009 (ip), vehicle: distilled water + Tween-80) is 100 % of control; the T/C (dose: 100.0 mg/kg/injection, schedule: Q01DX009 (ip), vehicle: distilled water + Tween-80) was 102 % of control.

For `COc1ccc(/C=C/Cc2cc3c(cc2OC(C)=O)OCO3)cc1`, the T/C is 98 % of control under setting [1], 101 % of control under setting [2] and 93 % of control under setting [3].

On to `CCCOC(=O)CP(=O)(O)O`, for which the T/C reads like this: under setting [4], 101 % of control; under setting [11], 95 % of control; under setting [12], 87 % of control.

As to `Nc1ccc(S(=O)(=O)c2ccc(NCNc3ccc(S(=O)(=O)c4ccc(N)cc4)cc3)cc2)cc1`, the T/C runs as follows: under setting [11], 94 % of control; under setting [12], 91 % of control; under setting [13], 94 % of control.

For `O=c1c(Br)c(Cl)nc2ccccn12`, the T/C reads like this: under setting [14], 90 % of control; under setting [15], 100 % of control; under setting [16], 95 % of control.

As to `Oc1c(N=Nc2nn[nH]n2)ccc2ccccc12`, the T/C under setting [8] is 105 % of control, the T/C under setting [9] is 97 % of control and the T/C under setting [10] was 99 % of control.

Take `COc1cc(/C=C(\C#N)C(N)=O)cc(Br)c1O`: the T/C is 100 % of control under setting [8], 103 % of control under setting [9] and 100 % of control under setting [10].

As to `Cc1ccc(C(C(C)[N+](=O)[O-])C(C(=O)c2ccccc2)S(=O)(=O)c2ccccc2)cc1` (stereo not given), the T/C was 93 % of control under setting [5]; 106 % of control and 91 % of control under setting [6]; 106 % of control and 89 % of control under setting [7].

In the case of `Cn1c(C=O)cc2c(Cl)nccc21`, the T/C by setting is: under setting [5], 103 % of control; under setting [6], 103 % of control; under setting [7], 101 % of control.

On to `CNC(=S)C(N)CCCC1NC(=S)N(C)C1=O` (stereo not given), for which the T/C by setting is: under setting [1], 99 % of control; under setting [2], 89 % of control; under setting [3], 88 % of control.

In the case of `COC(=O)c1ccc(/C=C/C(=O)c2ccc(C(=O)OC)cc2)cc1`, the T/C is, setting by setting: under setting [14], 106 % of control; under setting [15], 101 % of control; under setting [16], 98 % of control.
